Test results from ChEMBL document CHEMBL5257065, “Isosteviol derivatives as protein tyrosine Phosphatase-1B inhibitors: Synthesis, biological evaluation and molecular docking” (Bioorg Med Chem, 2023).

Assays:
[1] = target: T1, Tyrosine-protein phosphatase non-receptor type 1 (Homo sapiens) (UniProt P18031); assay: Inhibition of PTP1B (unknown origin) at 10 micromol/L by DAS-ELISA; conditions: dose 10.0 µmol/L
T1 sequence (whole entry): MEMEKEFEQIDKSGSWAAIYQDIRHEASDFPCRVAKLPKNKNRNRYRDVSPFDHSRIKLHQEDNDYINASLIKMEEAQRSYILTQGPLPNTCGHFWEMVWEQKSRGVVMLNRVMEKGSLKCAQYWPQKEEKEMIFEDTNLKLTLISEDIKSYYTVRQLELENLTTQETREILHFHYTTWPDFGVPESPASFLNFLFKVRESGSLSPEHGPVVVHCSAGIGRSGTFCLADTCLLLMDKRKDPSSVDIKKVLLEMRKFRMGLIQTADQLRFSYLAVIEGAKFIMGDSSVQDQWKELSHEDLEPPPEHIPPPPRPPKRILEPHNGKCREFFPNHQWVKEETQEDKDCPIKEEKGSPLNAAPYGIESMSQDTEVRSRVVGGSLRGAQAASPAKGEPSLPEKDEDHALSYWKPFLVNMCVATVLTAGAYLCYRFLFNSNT

[2] = target: T2, Tyrosine-protein phosphatase non-receptor type 1 (Homo sapiens, UniProt P18031); assay: Inhibition of PTP1B (unknown origin) by DAS-ELISA
T2 sequence (P18031 whole entry): T1 sequence (whole entry)

Homo sapiens [3] = species: Homo sapiens; assay: Selectivity ratio of IC50 for TCPTP (unknown origin) to IC50 for PTP1B (unknown origin) by DAS-ELISA
Homo sapiens [4] = species: Homo sapiens; assay: Selectivity ratio of IC50 for CDC25B (unknown origin) to IC50 for PTP1B (unknown origin) by DAS-ELISA
[5] = target: T3, M-phase inducer phosphatase 2 (Homo sapiens, UniProt P30305); assay: Inhibition of CDC25B (unknown origin) by DAS-ELISA
T3 sequence (P30305 whole entry): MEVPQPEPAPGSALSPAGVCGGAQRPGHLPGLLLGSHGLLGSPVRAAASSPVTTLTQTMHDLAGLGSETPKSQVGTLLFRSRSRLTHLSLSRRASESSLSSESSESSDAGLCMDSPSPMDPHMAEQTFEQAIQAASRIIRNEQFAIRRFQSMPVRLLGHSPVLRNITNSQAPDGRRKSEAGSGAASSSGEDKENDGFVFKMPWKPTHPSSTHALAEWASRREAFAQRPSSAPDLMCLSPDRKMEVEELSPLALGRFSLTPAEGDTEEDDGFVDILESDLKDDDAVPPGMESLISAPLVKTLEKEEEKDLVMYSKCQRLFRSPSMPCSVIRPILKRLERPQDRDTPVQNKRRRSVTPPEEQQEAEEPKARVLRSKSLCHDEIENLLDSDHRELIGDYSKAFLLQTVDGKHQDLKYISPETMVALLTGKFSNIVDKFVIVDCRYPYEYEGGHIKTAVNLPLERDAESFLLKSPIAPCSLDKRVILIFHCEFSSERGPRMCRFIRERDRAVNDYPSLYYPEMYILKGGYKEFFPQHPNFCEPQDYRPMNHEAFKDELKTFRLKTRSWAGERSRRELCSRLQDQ

[6] = target: T4, Tyrosine-protein phosphatase non-receptor type 2 (Homo sapiens, UniProt P17706); assay: Inhibition of TCPTP (unknown origin) by DAS-ELISA
T4 sequence (P17706 whole entry): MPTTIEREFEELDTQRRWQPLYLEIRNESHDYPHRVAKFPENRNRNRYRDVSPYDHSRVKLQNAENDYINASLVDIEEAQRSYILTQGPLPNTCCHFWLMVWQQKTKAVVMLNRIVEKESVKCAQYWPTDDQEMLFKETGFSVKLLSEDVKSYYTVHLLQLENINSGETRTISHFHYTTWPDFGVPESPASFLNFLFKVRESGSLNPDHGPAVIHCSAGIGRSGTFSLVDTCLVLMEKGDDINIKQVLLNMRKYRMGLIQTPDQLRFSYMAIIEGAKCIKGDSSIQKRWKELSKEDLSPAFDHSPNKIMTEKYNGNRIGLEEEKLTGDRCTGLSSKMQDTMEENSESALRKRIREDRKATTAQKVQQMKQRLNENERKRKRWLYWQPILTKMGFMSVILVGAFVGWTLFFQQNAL

SMILES	inhibition [1]	also measured
CCOC(=O)[C@]1(C)CCC[C@@]2(C)[C@@H]3CC[C@@]4(C)C[C@]3(CC[C@@H]21)C/C4=N\OC	71.5%	
CCOC(=O)[C@]1(C)CCC[C@@]2(C)[C@@H]3CC[C@@]4(C)C[C@]3(CC[C@@H]21)C[C@H]4O	67.2%	
CCOC(=O)[C@]1(C)CCC[C@@]2(C)[C@@H]3CC[C@@]4(C)C[C@]3(CC[C@@H]21)CC4=O	73.9%	
C[C@@]12CC[C@@H]3[C@@](CC[C@H]4[C@@]3(C)CCC[C@@]4(C)C(=O)OCCCCBr)(CC1=O)C2	70.9%	
C[C@@]12CC[C@@H]3[C@@](CC[C@H]4[C@@]3(C)CCC[C@@]4(C)C(=O)OCCN3CCNCC3)(CC1=O)C2	78.5%	IC50 [2]: 0.8 µM
C[C@@]12CC[C@@H]3[C@@](CC[C@H]4[C@@]3(C)CCC[C@@]4(C)C(=O)OCCBr)(CC1=O)C2	73.6%	
CCOC(=O)[C@]1(C)CCC[C@@]2(C)[C@@H]3CC[C@@]4(C)C[C@]3(CC[C@@H]21)[C@H](Br)C4=O	81.7%	IC50 [2]: 0.24 µM; Ratio IC50 (Homo sapiens [3]): 7; Ratio IC50 (Homo sapiens [4]): 14; IC50 [5]: 3.31 µM; IC50 [6]: 1.7 µM
C[C@@]12CC[C@@H]3[C@@](CC[C@H]4[C@@]3(C)CCC[C@@]4(C)C(=O)OCc3cccc(C#N)c3)(CC1=O)C2	76%	
COC(=O)[C@]1(C)CCC[C@@]2(C)[C@@H]3CC[C@@]4(C)C[C@]3(CC[C@@H]21)CC4=O	70.1%	
C[C@@]12CC[C@@H]3[C@@](CC[C@H]4[C@@]3(C)CCC[C@@]4(C)C(=O)OCCN3CCCCC3)(CC1=O)C2	74.2%	
C[C@@]12CC[C@@H]3[C@@](CC[C@H]4[C@@]3(C)CCC[C@@]4(C)C(=O)OCc3ccccc3Cl)(CC1=O)C2	43.8%	
C[C@@]12CC[C@@H]3[C@@](CC[C@H]4[C@@]3(C)CCC[C@@]4(C)C(=O)OCc3ccc(Br)cc3)(CC1=O)C2	79.6%	IC50 [2]: 0.33 µM; Ratio IC50 (Homo sapiens [3]): 3.5; Ratio IC50 (Homo sapiens [4]): 6; IC50 [5]: 3.55 µM; IC50 [6]: 3.24 µM
Cc1ccc(S(=O)(=O)N/N=C2/C[C@]34CC[C@H]5[C@@](C)(CCC[C@@]5(C)C(=O)O)[C@@H]3CC[C@@]2(C)C4)cc1	75.3%	
C[C@@]12CC[C@@H]3[C@@](CC[C@H]4[C@@]3(C)CCC[C@@]4(C)C(=O)OCc3ccccc3)(CC1=O)C2	52.4%	
C[C@@]12CC[C@@H]3[C@@](CC[C@H]4[C@@]3(C)CCC[C@@]4(C)C(=O)O)(C/C1=N\O)C2	61.9%	
CCCOC(=O)[C@]1(C)CCC[C@@]2(C)[C@@H]3CC[C@@]4(C)C[C@]3(CC[C@@H]21)C/C4=N\O	76.3%	
CCOC(=O)[C@]1(C)CCC[C@@]2(C)[C@@H]3CC[C@@]4(C)C[C@]3(CC[C@@H]21)C[C@H]4OC(=O)c1ccccc1	75.5%	
C[C@@]12CC[C@@H]3[C@@](CC[C@H]4[C@@]3(C)CCC[C@@]4(C)C(=O)OCCCCCBr)(CC1=O)C2	71.9%	
C[C@@]12CC[C@@H]3[C@@](CC[C@H]4[C@@]3(C)CCC[C@@]4(C)C(=O)OCc3ccccc3Br)(CC1=O)C2	50.3%	
C[C@@]12CC[C@@H]3[C@@](CC[C@H]4[C@@]3(C)CCC[C@@]4(C)C(=O)O)(CC1=O)C2 [ISOSTEVIOL]	63.6%	IC50 [2]: 2.27 µM; IC50 [5]: 2.09 µM; IC50 [6]: 1.58 µM
CCOC(=O)[C@]1(C)CCC[C@@]2(C)[C@@H]3CC[C@@]4(C)C[C@]3(CC[C@@H]21)C[C@H]4OC(=O)c1ccc(O)cc1	79%	IC50 [2]: 0.36 µM; Ratio IC50 (Homo sapiens [3]): 3.5; Ratio IC50 (Homo sapiens [4]): 6; IC50 [5]: 2.34 µM; IC50 [6]: 2.63 µM
C[C@@]12CC[C@@H]3[C@@](CC[C@H]4[C@@]3(C)CCC[C@@]4(C)C(=O)OCc3ccccc3I)(CC1=O)C2	82.6%	IC50 [2]: 0.4 µM; Ratio IC50 (Homo sapiens [3]): 3.5; Ratio IC50 (Homo sapiens [4]): 6; IC50 [5]: 3.24 µM; IC50 [6]: 1.41 µM
CCOC(=O)[C@]1(C)CCC[C@@]2(C)[C@@H]3CC[C@@]4(C)C[C@]3(CC[C@@H]21)C/C4=N\O	50.8%	
C[C@@]12CC[C@@H]3[C@@](CC[C@H]4[C@@]3(C)CCC[C@@]4(C)C(=O)O)(C[C@H]1O)C2	36.2%	
CC(=O)O[C@@H]1C[C@]23CC[C@H]4[C@@](C)(CCC[C@@]4(C)C(=O)O)[C@@H]2CC[C@@]1(C)C3	74%	
C[C@@]12CC[C@@H]3[C@@](CC[C@H]4[C@@]3(C)CCC[C@@]4(C)C(=O)OCCCCN3CCCCC3)(CC1=O)C2	77.7%	
Cc1ccc(COC(=O)[C@]2(C)CCC[C@@]3(C)[C@@H]4CC[C@@]5(C)C[C@]4(CC[C@@H]32)CC5=O)cc1	71.8%	
COC(=O)[C@]1(C)CCC[C@@]2(C)[C@@H]3CC[C@@]4(C)C[C@]3(CC[C@@H]21)C/C4=N\O	22%	
CCCOC(=O)[C@]1(C)CCC[C@@]2(C)[C@@H]3CC[C@@]4(C)C[C@]3(CC[C@@H]21)CC4=O	61.9%	
